The values below come from DBAASP.

What all share (assay): ≥ marks a high value that may be exact or a test limit, other limits are often not marked, values filed in µg/mL are converted to µM
Assay [1] concerns Pseudomonas aeruginosa PAO1.
The subject of assay [2] is Escherichia coli K-12.
For assay [3], the system named is Staphylococcus aureus USA 300.
The subject of assay [4] is Bacillus subtilis 168.
Assay [5] deals with Micrococcus luteus.
In assay [6] the test system is Escherichia coli.
In assay [7] the test system is Staphylococcus aureus.
The subject of assay [8] is Bacillus cereus.
For assay [9], the system named is Streptococcus uberis.
For assay [10], the system named is Pasteurella multocida.
For assay [11], the system named is Listeria innocua.
The subject of assay [12] is Staphylococcus epidermidis.
Assay [13] deals with Leuconostoc lactis.
In assay [14] the test system is Pseudomonas aeruginosa.
In assay [15] the test system is Enterococcus faecalis.
Assay [16] deals with Staphylococcus aureus ATCC 25923.
The test system of assay [17] is Enterobacter cloacae.
Assay [18] relates to Staphylococcus aureus ATCC 29213.
Assay [19] concerns Acinetobacter baumannii.
The test system of assay [20] is Escherichia coli ATCC 25922.
Assay [21] relates to Staphylococcus aureus MR.
For assay [22], the system named is Candida albicans ATCC 90028.
Assay [23] has as its system Pseudomonas aeruginosa ATCC 27853.
In assay [24] the test system is Acinetobacter baumannii ATCC 19606.

Values after ≈ are worked out from the molar mass of the structure shown. Where only a bound is given, the exact number is not on record here.

One may read the MIC as the lowest concentration that inhibits growth of the organism. The low end stands for a more susceptible organism, the high end for a less susceptible organism. On to `CC[C@H](C)[C@H](NC(=O)[C@@H](NC(=O)[C@H](CCCCN)NC(=O)CNC(=O)[C@@H](NC(=O)[C@@H](NC(=O)[C@H](CO)NC(=O)[C@@H](NC(=O)[C@@H](NC(=O)[C@@H]1CCCN1C(=O)[C@@H](NC(=O)[C@@H](NC(=O)CN)[C@@H](C)CC)[C@@H](C)CC)[C@@H](C)CC)[C@@H](C)CC)[C@@H](C)CC)[C@@H](C)CC)[C@@H](C)CC)C(N)=O` [GIIPIISIIGKII], for which the MIC was over 30 µM in assay [1], at least 34 µM in [2], at least 34 µM in assay [3] and 30 µM (≈ 40.5 µg/mL) in assay [4].

With `CC[C@H](C)[C@H](NC(=O)[C@@H](NC(=O)[C@H](CO)NC(=O)[C@H](C)NC(=O)[C@@H](NC(=O)[C@H](CCCCN)NC(=O)[C@H](CCCCN)NC(=O)[C@@H](NC(=O)[C@@H](NC(=O)[C@H](CC(=O)O)NC(=O)[C@H](C)NC(=O)[C@H](CC(C)C)NC(=O)CN)C(C)C)[C@@H](C)CC)C(C)C)C(C)C)C(=O)NCC(=O)NCC(=O)N[C@@H](CC(C)C)C(N)=O` [GLADVIKKVASVIGGL], the minimal inhibitory concentration (MIC) in [5] is at least 32.5 µM; in [6], over 64.9 µM; in assay [7], 64.9 µM (≈ 99.9 µg/mL); in [8], at least 32.5 µM; in assay [9], at least 64.9 µM; in assay [10] it was at least 64.9 µM. The minimum inhibitory concentration (MIC) in assay [11], in [12] and in assay [13] was at least 64.9 µM in each case.

Turning to `CC[C@H](C)[C@H](NC(=O)[C@@H](NC(=O)[C@H](C)NC(=O)[C@H](Cc1ccccc1)NC(=O)[C@H](CC(C)C)NC(=O)CN)C(C)C)C(=O)N[C@@H](CCCCN)C(=O)N[C@@H](CCCCN)C(=O)N[C@H](C(=O)N[C@@H](C)C(=O)N[C@@H](CCCCN)C(=O)N[C@H](C(=O)N[C@H](C(=O)N[C@@H](CCCCN)C(=O)N[C@@H](CCCCN)C(=O)N[C@@H](CC(C)C)C(N)=O)[C@@H](C)CC)C(C)C)C(C)C` [GLFAVIKKVAKVIKKL], the MIC in [5] was 14.2 µM (≈ 25 µg/mL); in assay [6] it was over 57 µM; in [7], 14.2 µM (≈ 25 µg/mL); in assay [8], 14.2 µM (≈ 25 µg/mL); in assay [9], 28.5 µM (≈ 50 µg/mL); in assay [10], at least 57 µM. In addition, the MIC in [11] is at least 57 µM; in assay [12], 6.84 µM (≈ 12 µg/mL); in [13], 1.71 µM (≈ 3 µg/mL).

As for `CC[C@H](C)[C@H](NC(=O)[C@@H](NC(=O)[C@H](CO)NC(=O)[C@H](C)NC(=O)[C@@H](NC(=O)[C@H](CCCCN)NC(=O)[C@H](C)NC(=O)[C@@H](NC(=O)[C@@H](NC(=O)[C@H](CC(=O)O)NC(=O)[C@H](Cc1ccccc1)NC(=O)[C@H](CC(C)C)NC(=O)CN)C(C)C)[C@@H](C)CC)C(C)C)C(C)C)C(=O)NCC(=O)NCC(=O)N[C@@H](CC(C)C)C(N)=O` [GLFDVIAKVASVIGGL], the MIC in assay [5] is at least 64.1 µM; in assay [6], over 64.1 µM; in assay [7], 64.1 µM (≈ 99.9 µg/mL); in [8] it was at least 64.1 µM; in assay [9], at least 64.1 µM; in assay [10], at least 64.1 µM. The minimal inhibitory concentration (MIC) is at least 64.1 µM in [11], at least 64.1 µM in assay [12] and 16 µM (≈ 25 µg/mL) in assay [13].

Regarding `CC[C@H](C)[C@H](NC(=O)[C@H](CCCCN)NC(=O)[C@H](CO)NC(=O)[C@H](C)NC(=O)[C@@H](NC(=O)[C@H](CCCCN)NC(=O)[C@H](CCCCN)NC(=O)[C@@H](NC(=O)[C@@H](NC(=O)[C@H](CC(=O)O)NC(=O)[C@H](Cc1ccccc1)NC(=O)[C@H](CC(C)C)NC(=O)CN)C(C)C)[C@@H](C)CC)C(C)C)C(=O)N[C@@H](CCCCN)C(=O)NCC(=O)N[C@@H](CC(C)C)C(N)=O` [GLFDVIKKVASKIKGL], the minimum inhibitory concentration (MIC) in assay [5] was at least 58.3 µM; in assay [6] it was over 58.3 µM; in assay [7], over 58.3 µM; in assay [8] it was at least 58.3 µM; in assay [9] it was at least 58.3 µM; in assay [10], at least 58.3 µM. Further, the MIC in assay [11] is at least 58.3 µM; in assay [12] it was at least 58.3 µM; in assay [13], 3.5 µM (≈ 6 µg/mL).

Consider `CC[C@H](C)[C@H](NC(=O)[C@@H](NC(=O)[C@@H]1CCCN1C(=O)[C@H](C)NC(=O)[C@@H](NC(=O)[C@H](Cc1cnc[nH]1)NC(=O)[C@@H]1CCCN1C(=O)[C@H](CC(C)C)NC(=O)[C@H](CC(C)C)NC(=O)[C@H](Cc1cnc[nH]1)NC(=O)[C@H](CCCCN)NC(=O)[C@H](C)NC(=O)[C@@H](NC(=O)[C@H](CO)NC(=O)CNC(=O)[C@H](CC(C)C)NC(=O)[C@@H](NC(=O)[C@H](CCCCN)NC(=O)[C@H](Cc1ccccc1)NC(=O)[C@H](CC(C)C)NC(=O)CN)C(C)C)C(C)C)C(C)C)[C@@H](C)CC)C(=O)N[C@@H](C)C(=O)N[C@@H](CCC(=O)O)C(=O)N[C@@H](CCCCN)C(=O)N[C@@H](CC(C)C)C(N)=O` [GLFKVLGSVAKHLLPHVAPIIAEKL], for which the minimum inhibitory concentration (MIC) in assay [5] was 9.43 µM (≈ 25 µg/mL); in [6] it was over 37.7 µM; in [8], 18.9 µM (≈ 50 µg/mL); in [9], 9.43 µM (≈ 25 µg/mL); in assay [10], 18.9 µM (≈ 50 µg/mL); in [14], over 37.7 µM. For the same molecule, the minimal inhibitory concentration (MIC) is at least 37.7 µM in [15]; 4.53 µM (≈ 12 µg/mL) in [11]; 4.53 µM (≈ 12 µg/mL) in [16]; 4.53 µM (≈ 12 µg/mL) in assay [12]; 1.13 µM (≈ 3 µg/mL) in [13]; at least 37.7 µM in assay [17]. Also, the MIC in assay [18] is 4.53 µM (≈ 12 µg/mL).

Regarding `CC[C@H](C)[C@H](NC(=O)[C@H](CCCN=C(N)N)NC(=O)[C@H](CCCCN)NC(=O)[C@@H](NC(=O)[C@@H](NC(=O)[C@H](CCCN=C(N)N)NC(=O)[C@@H](N)CCCCN)[C@@H](C)CC)C(C)C)C(=O)N[C@@H](CCCCN)C(=O)N[C@@H](CC(=O)O)C(=O)N[C@@H](Cc1ccccc1)C(=O)N[C@@H](CC(C)C)C(=O)N[C@@H](CCCN=C(N)N)C(=O)O` [KRIVKRIKDFLR], the MIC is at least 50.9 µM in assay [19]; 1.25 µM (≈ 1.96 µg/mL) in [20]; at least 204 µM in assay [21]; at least 204 µM in assay [16]; 2.5 µM (≈ 3.93 µg/mL) in assay [22]; 2.5 µM (≈ 3.93 µg/mL) in assay [23]. The minimum inhibitory concentration (MIC) is at least 102 µM in [24] and 2.5 µM (≈ 3.93 µg/mL) in assay [18].

Take `CC[C@H](C)[C@H](NC(=O)[C@H](Cc1ccc(O)cc1)NC(=O)[C@H](CCCN=C(N)N)NC(=O)[C@H](CCCCN)NC(=O)[C@H](Cc1ccc(O)cc1)NC(=O)[C@@H](N)CC(C)C)C(=O)N[C@@H](CC(C)C)C(=O)N[C@@H](CCCN=C(N)N)C(=O)N[C@@H](CCCCN)C(=O)N[C@@H](Cc1ccccc1)C(=O)N[C@@H](CCCCN)C(=O)N[C@@H](Cc1ccccc1)C(=O)N[C@@H](CC(C)C)C(=O)N[C@@H](CCCCN)C(=O)N[C@@H](CCCCN)C(=O)N[C@@H](CCCCN)C(=O)N[C@@H](CC(C)C)C(=O)N[C@@H](CCCCN)C(=O)N[C@@H](CCCCN)C(=O)N[C@@H](CCCCN)C(N)=O` [LYKRYILRKFKFLKKKLKKK]: the MIC in [21] amounted to 24 µM (≈ 64 µg/mL).

For the molecule `CC(C)C[C@H](NC(=O)[C@@H](N)CCCN=C(N)N)C(=O)N[C@@H](C)C(=O)N[C@@H](CCCN=C(N)N)C(=O)N[C@@H](CCCN=C(N)N)C(=O)N[C@H](C(=O)N[C@H](C(=O)N[C@@H](CCCN=C(N)N)C(=O)N[C@@H](CCCN=C(N)N)C(=O)N[C@H](C(=O)N[C@@H](C)C(=O)N[C@@H](CCCN=C(N)N)C(N)=O)C(C)C)C(C)C)C(C)C` [RLARRVVRRVAR], the minimal inhibitory concentration (MIC) in assay [7] is over 66.3 µM; in assay [21], at least 66.3 µM.
